Source: article PMC3361532 (2012)

Target: Abl (Homo sapiens, UniProt P00519)
Assay: in vitro kinase assay with active recombinant Abl
Assay type: biochemical

Abl, sequence (P00519 whole entry): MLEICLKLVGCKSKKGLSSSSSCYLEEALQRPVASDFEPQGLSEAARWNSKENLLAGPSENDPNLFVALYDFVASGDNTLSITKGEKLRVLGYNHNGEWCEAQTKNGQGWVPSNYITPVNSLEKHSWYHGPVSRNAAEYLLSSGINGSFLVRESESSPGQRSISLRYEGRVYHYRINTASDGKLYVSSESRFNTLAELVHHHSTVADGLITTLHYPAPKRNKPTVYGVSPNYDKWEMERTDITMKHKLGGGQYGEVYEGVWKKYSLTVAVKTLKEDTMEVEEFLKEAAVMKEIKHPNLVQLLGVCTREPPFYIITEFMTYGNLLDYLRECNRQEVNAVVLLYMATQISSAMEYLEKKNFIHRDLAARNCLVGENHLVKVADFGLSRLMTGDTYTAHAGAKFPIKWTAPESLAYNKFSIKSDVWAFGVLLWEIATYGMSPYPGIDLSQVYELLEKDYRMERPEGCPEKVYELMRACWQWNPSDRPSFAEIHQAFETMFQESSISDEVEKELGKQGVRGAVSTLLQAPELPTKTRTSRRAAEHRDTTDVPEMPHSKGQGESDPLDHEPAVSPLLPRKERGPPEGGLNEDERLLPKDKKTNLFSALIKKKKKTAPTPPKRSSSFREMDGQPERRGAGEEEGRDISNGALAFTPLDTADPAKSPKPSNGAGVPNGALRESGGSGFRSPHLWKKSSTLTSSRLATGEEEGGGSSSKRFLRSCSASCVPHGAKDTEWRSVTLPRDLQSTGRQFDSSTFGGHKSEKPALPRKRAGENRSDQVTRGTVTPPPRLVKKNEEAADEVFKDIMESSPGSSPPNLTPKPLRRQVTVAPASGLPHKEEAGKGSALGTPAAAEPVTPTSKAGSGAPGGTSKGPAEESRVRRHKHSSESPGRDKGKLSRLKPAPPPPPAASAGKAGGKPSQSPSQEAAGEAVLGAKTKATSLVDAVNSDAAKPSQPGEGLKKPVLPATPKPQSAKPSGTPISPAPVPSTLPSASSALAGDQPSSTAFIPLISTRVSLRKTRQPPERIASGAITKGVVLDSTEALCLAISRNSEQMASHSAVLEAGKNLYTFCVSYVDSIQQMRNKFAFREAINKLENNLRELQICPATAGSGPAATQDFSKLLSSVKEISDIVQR

IC50: 8.7 µM
SMILES: O=C1Nc2ccccc2C1=C1Nc2ccccc2C1=NOCC(O)CO (stereo not shown) [E804]
